According to patent US20080096228A1, “Compositions And Methods Relating To Mammalian Internal Ribosome Entry Sites” (THE REGENTS OF THE UNIVERSITY OF CALIFORNIA, priority 2006, published 2008):
Several values for one entry are separate records, joined by “and”; a condition that tells them apart may be missing. Equal entries are not always repeated. Structures can show the parent of a compound that is named as a salt.

How the values were obtained:
[1] = system: LEF-1 protein expression in K562 cells; experiment: LEF-1 protein expression in K562 cells, Western blot; type: cell-based; settings: imatinib 2 uM, rapamycin 10 ng/mL or both, 24 hours
[2] = system: CVB3 IRES; experiment: Capped dicistronic RNA transfection, CVB3 IRES firefly luciferase, K562 cells; type: cell-based; settings: 2 μM imatinib, 24 hours
Description: (§1) The capped dicistronic mRNAs were generated by in vitro transcription of the dicistronic (linearized with PMEI) plasmid using the T7-based Megascript in vitro transcription kit (Ambion) as per the manufacturer's protocol. The integrity of the transcripts was analyzed on a 1% agarose gel.
(§2) Approximately 6×10^5 cells (K562) were seeded in 6-well plates and 2 μg of in vitro synthesized dicistronic mRNA was transfected per well using the Transmessenger transfection kit (Qiagen). A ratio of 1:6 (1 μg of RNA: 6 μL of transmessenger reagent) was used according to the manufacturer's instructions. […] Cell lysates were then assayed for luciferase activities as described above. All transfections were performed in duplicate and carried out 3 times.
(§3) To determine whether Bcr-Abl regulation is compartmentalized and further examine whether it functions post-transcriptionally, an RNA transient transfection was carried out in K562 cells. […] In these experiments the inventors again utilized CVB3 as a control for regulation in subcellular compartments since it predominantly depends on cytoplasmic machinery for translation.

[3] = system: cap-dependent translation (RLuc); experiment: Capped dicistronic RNA transfection, RLuc cap-dependent translation, K562 cells; type: cell-based; settings: 2 μM imatinib, 24 hours
Description: as §1, §2, §3

[4] = system: LEF-1 IRES; experiment: Dicistronic DNA transfection dual luciferase assay, LEF-1 IRES, K562 cells; type: cell-based; settings: 2 μM imatinib, 24 hour treatment
[5] = system: GAPDH mRNA; experiment: Northern blot of GAPDH mRNA (loading control) in K562 cells; type: cell-based; settings: 2 μM imatinib, 24 hours
[6] = system: LEF1 mRNA; experiment: Northern blot of LEF1 mRNA in K562 cells; type: cell-based; settings: 2 μM imatinib, 24 hours; for decrease of LEF1 mRNA levels (3.6 kb and 3.0 kb mRNAs): rapamycin 10 ng/mL or both, not normalized
Description: Total RNA was isolated from K562 cells using TriZol reagent (Invitrogen) according to the manufacturer's instructions. […] Approximately 20 μg of total RNA from K562 cells was analyzed on a Northern blot for LEF1 expression, respectively. Northern blotting was carried out as described elsewhere and the LEF1 ORF (open reading frame) probe was generated as described elsewhere and radiolabeled with ^32P-dATP. The blot was stripped and rehybridized with a ^32P-dATP radioloabeled GAPDH loading control probe.
Panel B: Northern blot analysis of total RNA isolated from K562 cells treated with inhibitors as described above. The three LEF1 mRNAs are indicated by arrows. A radiolabeled LEF-1 ORF cDNA probe was used to detect LEF1 mRNAs in the top panel. The blot was stripped and reprobed with GAPDH.

[7] = system: LEF-1 IRES; experiment: Capped dicistronic RNA transfection, LEF-1 IRES firefly luciferase, K562 cells; type: cell-based; settings: 2 μM imatinib, 24 hours, p<0.001
Description: as §1, §2, §3

[8] = system: cap-dependent translation (RLuc); experiment: Dicistronic DNA transfection, RLuc cap-dependent translation, K562 cells; type: cell-based; settings: 2 μM imatinib
[9] = system: LEF1 IRES; experiment: Dicistronic DNA transfection dual luciferase assay, LEF1 IRES, Ba/F3-Bcr-Abl-WT cells; type: cell-based, murine
Description: (§4) For transfection of the dicistronic plasmids into Ba/F3 cells, approximately 10×10^6 cells were seeded in […] and 10 μg of the reporter plasmid was transfected via a BTX 600 electroporator. […] Cell lysates were prepared for dual luciferase assays 8 hours post-transfection. […] Cell lysates were prepared for dual luciferase assays 24 hours post-transfection. Transfections were performed in duplicate and each experiment was carried out at least 3 times.
(§5) Cell lysates were assayed for luciferase activities using the Dual Luciferase Reporter Assay System (Promega) according to the manufacturer's protocol. Assays were performed using a SIRIUS luminometer (Berthold Detection Systems). FLuc:RLuc ratios were calculated for each sample, and the average value is represented as fold elevation over background, which is the Firefly luciferase: Renilla luciferase ratio (FLuc:RLuc) measured from the vector in the absence of an insert. […]
(§6) The dicistronic vector depicted in FIG. 4A contains 2 cistrons separated by an intercistronic region that also contains a hairpin structure. […] A dicistronic construct that contains the full length 1.2 kb LEF1 5′UTR and IRES, the empty vector with no insert (pRSTF), and the viral IRES of the well characterized coxsackievirus B3 (CVB3) were analyzed for comparison. […]

[10] = system: CVB3 IRES; experiment: Dicistronic DNA transfection dual luciferase assay, CVB3 IRES, Ba/F3-Bcr-Abl-WT cells; type: cell-based, murine; settings: 10 ng/mL rapamycin, 6 hours
Description: as §4, §5, §6

[11] = system: LEF-1 protein expression in primary CML cells; experiment: LEF-1 protein expression in primary CML cells, Western blot; type: cell-based, human; settings: rapamycin 10 ng/mL, 24 hours
Description: PB mononuclear cells (MNCs) were obtained by centrifugation through Ficoll-Hypaque, washed in PBS, and cryopreserved. To expand CML cells in vitro, cells were thawed and grown in media supplemented with 10% FBS and a growth factor cocktail consisting of 20 ng/ml granulocyte-macrophage colony stimulating factor, 20 ng/ml recombinant human interleukin 3, 20 ng/ml recombinant human stem cell factor, and 100 ng/ml granulocyte colony-stimulating factor. Following this, cells were incubated in liquid culture for 72-96 hrs, at 37° C. in a humidified atmosphere with 5% CO2 in serum-free medium (SFM) (StemCell Technologies, Vancouver, BC, Canada) supplemented with growth factors (GF) at concentrations similar to that found in stroma-conditioned medium. All cytokines were from PeproTech, Rocky Hills, N.J., except for GM-CSF (sargramostim, Immunex, Seattle, Wash.) and G-CSF (filgrastim, Amgen, Thousand Oaks, Calif.).

[12] = system: cap-dependent translation (RLuc); experiment: Dicistronic DNA transfection, RLuc cap-dependent translation, Ba/F3-Bcr-Abl-WT cells; type: cell-based, murine; settings: inhibitors for 6 hours
Description: as §4
Cell lysates were assayed for luciferase activities using the Dual Luciferase Reporter Assay System (Promega) according to the manufacturer's protocol. Assays were performed using a SIRIUS luminometer (Berthold Detection Systems). FLuc:RLuc ratios were calculated for each sample, and the average value is represented as fold elevation over background, which is the Firefly luciferase: Renilla luciferase ratio (FLuc:RLuc) measured from the vector in the absence of an insert.
as §6

Row | Molecule | LEF-1 protein levels [1] | effect on CVB3 IRES activity [2] | inhibition of RLuc translation, average [3] [fold] | decrease in LEF-1 IRES activity [4] [fold] | decrease in LEF-1 IRES activity ([4]; listed as Imatinib) | reduction of GAPDH mRNA levels [5] [fold] | decrease of LEF1 mRNA after normalizing with GAPDH mRNA levels [6] [fold] | decrease of LEF1 mRNA levels (3.6 kb and 3.0 kb mRNAs) [6] [fold] | reduction of LEF-1 IRES activity in the cytoplasm [7] [%] | reduction of RLuc translation, average [8] [fold] | decrease in LEF-1 IRES activity (FLuc:RLuc) ([9]; 10 ng/mL rapamycin, 6 hours) [%] | decrease in CVB3 IRES activity (FLuc:RLuc) [10] [%] | LEF-1 protein levels [11] | decrease in RLuc activity (cap-dependent translation), average [12] [fold] | elevation in the FLuc:RLuc ratio over empty vector ([9]; 8 hours post-transfection, no inhibitor) [fold]
1 | Cc1ccc(NC(=O)c2ccc(CN3CCN(C)CC3)cc2)cc1Nc1nccc(-c2cccnc2)n1 [imatinib, imatinib mesylate] | significantly down-regulated | insensitive | 3.4 | 2.3 | 3-4 fold and 3 fold | 1.4 | 2 | 3 | 45 | 2.6 |  |  |  |  | 
2 | CO[C@H]1C[C@@H]2CC[C@@H](C)[C@@](O)(O2)C(=O)C(=O)N2CCCC[C@H]2C(=O)O[C@H]([C@H](C)C[C@@H]2CC[C@@H](O)[C@H](OC)C2)CC(=O)[C@H](C)/C=C(\C)[C@@H](O)[C@@H](OC)C(=O)[C@H](C)C[C@H](C)/C=C/C=C/C=C/1C [rapamycin] | no effect |  |  |  |  |  |  | ~2 |  |  | 38 | 33 | no effect | 2 | 
3 | LEF1 IRES: human LEF1 5'UTR (1.178 kb) internal ribosome entry site, SEQ ID NO:1, in dicistronic vector pRSTF-LEF(1.2) (nucleic acid, listed as Homo sapiens, (298)..(1095) IRES Sequence; (298)..(656) IRES Module 1; (656)..(1095) IRES Module 2) DNA: TCAGCGCCGGCGAGGCGCGGGAGGAGGAGAAGCAGTGGGGAGGCGCAGCCGCTCACCTGCGGGGCAGGGCGCGGAGGAGGGACCCGGGCTGCGCGCTCTCGGGCCGAGGAACCAGGACGCGCCCGGAGCCTCGCACGCGGCCAAGCTCGGGGCGTCCCCTCCCCTCGGCCGGGCGAACTCAAGGGGCGCAGCTCTTTGCTTTGACAGAGCTGGCCGGCGGAGGCGTGCAGAGCGGCGAGCCGGCGAGCCAGGCTGAGAAACTCGAGCCGGGAACAAAGAGGGGTCGGACTGAGTGTGTGTGTCGGCTCGAGCTCCGGGCAGAGGCATTTGGGCCCGAGGCCCCCGCTGTGACTCCCCGAGACTCCGCAGTGCCCTCCACTGCGGAGTCCCCGCGCTTGCCGGCAAAAACTTTATTCTTGGCAAACTTCTCTTTCTCTTCCCCTCCTCCTCGGCCCCCATCTTCTGCTCCTCCTCCTTCTCTAGCAGATTAAATGAGCCTCGAGAAGAAAAACCGAAGCGAAAGGGAAGAAAATAAGAAGATCTAAAACGGACATCTCCAGCGTGGGTGGCTCCTTTTTCTTTTTCTTTTTTTCCCACCCTTCAGGAAGTGGACGTTTCGTTATCTTCTGATCCTTGCACCTTCTTTTGGGGCAAACGGGGCCCTTCTGCCCAGATCCCCTCTCTTTTCTCGGAAAACAAACTACTAAGTCGGCATCCGGGGTAACTACAGTGGAGAGGGTTTCCGCGGAGACGCGCCGCCGGACCCTCCTCTGCACTTTGGGGAGGCGTGCTCCCTCCAGAACCGGCGTTCTCCGCGCGCAAATCCCGGCGACGCGGGGTCGCGGGGTGGCCGCCGGGGCAGCCTCGTCTAGCGCGCGCCGCGCAGACGCCCCCGGAGTCGCCAGCTACCGCAGCCCTCGCCGCCCAGTGCCCTTCGGCCTCGGGGGCGGGCGCCTGCGTCGGTCTCCGCGAAGCGGGAAAGCGCGGCGGCCGCCGGGATTCGGGCGCCGCGGCAGCTGCTCCGGCTGCCGGCCGGCGGCCCCGCGCTCGCCCGCCCCGCTTCCGCCCGCTGTCCTGCTGCACGAACCCTTCCAACTCTCCTTTCCTCCCCCACCCTTGAGTTACCCCTCTGTCTTTCCTGCTGTTGCGCGGGTGCTCCCACAGCGGAGCGGAGATTACAGAGCCGCCGGGATGCCCCAACTCTCCGGAGGAGGTGGCGGCGGCGGGGGGGACCCGGAACTCTGCGCCACGGACGAGATGA |  |  |  |  |  |  |  |  |  |  |  |  |  |  | 55
